From US20190161451A1, “HERBICIDAL PYRIMIDINE COMPOUNDS” (BASF SE, priority 2016, published 2019)

What was measured:
[1] = test system: ALOMY; assay: greenhouse experiment, post-emergence treatment; assay type: in vivo, Alopecurus myosuroides; conditions: post-emergence method, scale from 0 to 100
Description: (§1) The culture containers used were plastic flowerpots containing loamy sand with approximately 3.0% of humus as the substrate. The seeds of the test plants were sown separately for each species.
(§2) For the post-emergence treatment, the test plants were first grown to a height of 3 to 15 cm, depending on the plant habit, and only then treated with the active ingredients which had been suspended or emulsified in water. For this purpose, the test plants were either sown directly and grown in the same containers, or they were first grown separately as seedlings and transplanted into the test containers a few days prior to treatment.
(§3) Depending on the species, the plants were kept at 10-25° C. or 20-35° C., respectively.
(§4) The test period extended over 2 to 4 weeks. During this time, the plants were tended, and their response to the individual treatments was evaluated.
(§5) Evaluation was carried out using a scale from 0 to 100. 100 means no emergence of the plants, or complete destruction of at least the aerial moieties, and 0 means no damage, or normal course of growth. A good herbicidal activity is given at values of at least 70 and a very good herbicidal activity is given at values of at least 85.
(§6) The plants used in the greenhouse experiments were of the following species: […]

[2] = test system: ECHCG; assay: greenhouse experiment, pre-emergence treatment; assay type: in vivo, Echinocloa crus-galli; conditions: pre-emergence method, scale from 0 to 100
Description: as §1
(§7) For the pre-emergence treatment, the active ingredients, which had been suspended or emulsified in water, were applied directly after sowing by means of finely distributing nozzles.
(§8) The containers were irrigated gently to promote germination and growth and subsequently covered with transparent plastic hoods until the plants had rooted. This cover caused uniform germination of the test plants, unless this had been impaired by the active ingredients.
as §3, §4, §5, §6

[3] = test system: AMARE; assay: greenhouse experiment, post-emergence treatment; assay type: in vivo, Amaranthus retroflexus; conditions: post-emergence method, scale from 0 to 100
Description: as §1, §2, §3, §4, §5, §6

[4] = test system: APESV; assay: greenhouse experiment, pre-emergence treatment; assay type: in vivo, Apera spica-venti; conditions: pre-emergence method, scale from 0 to 100
Description: as §1, §7, §8, §3, §4, §5, §6

[5] = test system: SETVI; assay: greenhouse experiment, post-emergence treatment; assay type: in vivo, Setaria viridis; conditions: post-emergence method, scale from 0 to 100
Description: as §1, §2, §3, §4, §5, §6

[6] = test system: ABUTH; assay: greenhouse experiment, post-emergence treatment; assay type: in vivo, Abutilon theophrasti; conditions: post-emergence method, application rate 1000 g/ha, scale from 0 to 100
Description: as §1, §2, §3, §4, §5, §6

[7] = test system: ECHCG; assay: greenhouse experiment, post-emergence treatment; assay type: in vivo, Echinocloa crus-galli; conditions: post-emergence method, scale from 0 to 100
Description: as §1, §2, §3, §4, §5, §6

Structure (SMILES) | herbicidal activity against ALOMY ([1]; application rate 1000 g/ha) | herbicidal activity against ECHCG ([2]; application rate 1000 g/ha) | herbicidal activity against ECHCG ([7]; application rate 1000 g/ha) | further results
COC(=O)c1nc(C2CC2)ncc1-c1c(Cl)oc2ccccc12 [example 19] |  |  |  | herbicidal activity against ALOMY ([1]; application rate 2000 g/ha): good (A good herbicidal activity is given at values of at least 70)
COC(=O)c1nc(C2CC2)ncc1-c1csc2ccccc12 [example 12, Methyl 5-(benzothiophen-3-yl)-2-cyclopropyl-pyrimidine-4-carboxylate] |  |  |  | herbicidal activity against ECHCG ([2]; application rate 2000 g/ha): very good (a very good herbicidal activity is given at values of at least 85)
O=C(O)c1nc(C2CC2)ncc1-c1cccc2c1OC(F)(F)O2 [example 2, 2-Cyclopropyl-5-(2,2-difluoro-1,3-benzodioxol-4-yl)pyrimidine-4-carboxylic Acid] | very good (a very good herbicidal activity is given at values of at least 85) | very good (a very good herbicidal activity is given at values of at least 85) |  | herbicidal activity against AMARE ([3]; application rate 1000 g/ha): very good (a very good herbicidal activity is given at values of at least 85); herbicidal activity against APESV ([4]; application rate 1000 g/ha): very good (a very good herbicidal activity is given at values of at least 85)
COC(=O)c1nc(C2CC2)ncc1-c1coc2ccccc12 [example 15] |  | very good (a very good herbicidal activity is given at values of at least 85) |  | herbicidal activity against SETVI ([5]; application rate 1000 g/ha): very good (a very good herbicidal activity is given at values of at least 85)
COC(=O)c1nc(C2CC2)ncc1-c1c(Cl)cc2c(c1OC)OCO2 [example 35] |  |  |  | herbicidal activity against ABUTH [6]: very good (a very good herbicidal activity is given at values of at least 85)
COC(=O)c1nc(C2CC2)ncc1-c1c(Cl)cc2c(c1F)OCO2 [example 32] | good (A good herbicidal activity is given at values of at least 70) | very good (a very good herbicidal activity is given at values of at least 85) | good (A good herbicidal activity is given at values of at least 70) | 
COC(=O)c1nc(C2CC2)ncc1-c1cccc2c1OCCO2 [example 30] |  |  |  | herbicidal activity against AMARE ([3]; application rate 1000 g/ha): very good (a very good herbicidal activity is given at values of at least 85)
COC(=O)c1nc(C2CC2)ncc1-c1cc2c(cc1Cl)OCO2 [example 9] |  |  | very good (a very good herbicidal activity is given at values of at least 85) | 
O=C(O)c1nc(C2CC2)ncc1-c1cc2c(cc1Br)OCO2 [example 25] | good (A good herbicidal activity is given at values of at least 70) | very good (a very good herbicidal activity is given at values of at least 85) | good (A good herbicidal activity is given at values of at least 70) | herbicidal activity against ABUTH [6]: good (A good herbicidal activity is given at values of at least 70); herbicidal activity against APESV ([4]; application rate 1000 g/ha): very good (a very good herbicidal activity is given at values of at least 85)
O=C(O)c1nc(C2CC2)ncc1-c1c(Cl)cc2c(c1F)OCO2 [example 33] | good (A good herbicidal activity is given at values of at least 70) | very good (a very good herbicidal activity is given at values of at least 85) | very good (a very good herbicidal activity is given at values of at least 85) | herbicidal activity against APESV ([4]; application rate 1000 g/ha): very good (a very good herbicidal activity is given at values of at least 85)
COc1c2c(cc(Cl)c1-c1cnc(C3CC3)nc1C(=O)O)OCO2 [example 36] | very good (a very good herbicidal activity is given at values of at least 85) |  | very good (a very good herbicidal activity is given at values of at least 85) | herbicidal activity against APESV ([4]; application rate 1000 g/ha): very good (a very good herbicidal activity is given at values of at least 85)
COC(=O)c1nc(C2CC2)ncc1-c1c(Cl)ccc2c1OCO2 [example 11] | very good (a very good herbicidal activity is given at values of at least 85) | very good (a very good herbicidal activity is given at values of at least 85) |  | herbicidal activity against AMARE ([3]; application rate 1000 g/ha): good (A good herbicidal activity is given at values of at least 70)
O=C(O)c1nc(C2CC2)ncc1-c1cc2c(cc1I)OCO2 [example 29] |  |  |  | herbicidal activity against AMARE ([3]; application rate 1000 g/ha): very good (a very good herbicidal activity is given at values of at least 85)
COC(=O)c1nc(C2CC2)ncc1-c1c(Cl)sc2ccccc12 [example 4] | very good (a very good herbicidal activity is given at values of at least 85) | good (A good herbicidal activity is given at values of at least 70) |  | 
O=C(O)c1nc(C2CC2)ncc1-c1coc2ccccc12 [example 16] |  |  |  | herbicidal activity against ECHCG ([7]; application rate 2000 g/ha): good (A good herbicidal activity is given at values of at least 70); herbicidal activity against ECHCG ([2]; application rate 2000 g/ha): very good (a very good herbicidal activity is given at values of at least 85); herbicidal activity against APESV ([4]; application rate 2000 g/ha): very good (a very good herbicidal activity is given at values of at least 85)
O=C(O)c1nc(C2CC2)ncc1-c1csc2ccccc12 [example 13] |  |  |  | herbicidal activity against ALOMY ([1]; application rate 2000 g/ha): good (A good herbicidal activity is given at values of at least 70); herbicidal activity against AMARE ([3]; application rate 2000 g/ha): very good (a very good herbicidal activity is given at values of at least 85); herbicidal activity against ECHCG ([7]; application rate 2000 g/ha): good (A good herbicidal activity is given at values of at least 70); herbicidal activity against ECHCG ([2]; application rate 2000 g/ha): very good (a very good herbicidal activity is given at values of at least 85)
O=C(O)c1nc(C2CC2)ncc1-c1cc2c(cc1Cl)OCO2 [example 10] | very good (a very good herbicidal activity is given at values of at least 85) | very good (a very good herbicidal activity is given at values of at least 85) | good (A good herbicidal activity is given at values of at least 70) | herbicidal activity against APESV ([4]; application rate 1000 g/ha): very good (a very good herbicidal activity is given at values of at least 85)
COC(=O)c1nc(C2CC2)ncc1-c1cc2c(cc1Br)OCO2 [example 24] | very good (a very good herbicidal activity is given at values of at least 85) |  | very good (a very good herbicidal activity is given at values of at least 85) | 
O=C(O)c1nc(C2CC2)ncc1-c1c(Cl)oc2ccccc12 [example 20] |  |  |  | herbicidal activity against APESV ([4]; application rate 2000 g/ha): very good (a very good herbicidal activity is given at values of at least 85)
COC(=O)c1nc(C2CC2)ncc1-c1cc2c(cc1I)OCO2 [example 28] | good (A good herbicidal activity is given at values of at least 70) | very good (a very good herbicidal activity is given at values of at least 85) | good (A good herbicidal activity is given at values of at least 70) | 
COC(=O)c1nc(C2CC2)ncc1-c1c(Cl)sc2ccccc12 [example 17, Methyl 5-(2-chlorobenzothiophen-3-yl)-2-cyclopropyl-pyrimidine-4-carboxylate] |  |  |  | herbicidal activity against SETVI ([5]; application rate 2000 g/ha): very good (a very good herbicidal activity is given at values of at least 85)
O=C(O)c1nc(C2CC2)ncc1-c1cccc2c1OCC2 [example 5] |  | good (A good herbicidal activity is given at values of at least 70) | good (A good herbicidal activity is given at values of at least 70) | 
O=C(O)c1nc(C2CC2)ncc1-c1cccc2c1OCCO2 [example 31] |  | very good (a very good herbicidal activity is given at values of at least 85) | very good (a very good herbicidal activity is given at values of at least 85) | herbicidal activity against AMARE ([3]; application rate 1000 g/ha): very good (a very good herbicidal activity is given at values of at least 85); herbicidal activity against APESV ([4]; application rate 1000 g/ha): very good (a very good herbicidal activity is given at values of at least 85)
